Measured values published in patent publication US20260207537A1, “PHARMACEUTICAL COMPOSITION FOR PREVENTION AND TREATMENT OF AORTIC ANEURYSM, AND PROCESSED FOOD” (priority 2020, published 2026).

Experiments:
[1] = test system: abdominal aortic aneurysm; assay: Abdominal aortic aneurysm induction model, preventive forced administration (Examples 1 and 2); format: in vivo, rat; details: for Rupture rate of abdominal aortic aneurysm: among rats with observed aneurysm, control group 28.6; for Rupture confirmed (abdominal aortic aneurysm) / Rupture not confirmed (abdominal aortic aneurysm): number of rats among rats with observed aneurysm; for Survival rate: Example 2, FIG. 1; for Diameter of the aorta in the abdominal aortic aneurysm induction part: Example 2, FIG. 2, after completion of the test, control group about 4 MM
Procedure: SD-male rats of 4 weeks old (70 to 90 G) were used. Eighteen rats and eight rats were prepared as a control group and a medium chain fatty acid administration group, respectively.
Upon arrival, all rats were preliminarily fed normal feed without additional supplements for one week. Then, the medium chain fatty acid administration group was fed normal feed and forcibly administered with high-content neutral fats (decanoic acid occupied 98% of constituent fatty acids) in an amount of 1,145 MG/KG body-weight/day. The control group was fed normal feed and forcibly administered with water in an amount of 1,145 MG/KG body-weight/day.
In this test, the medium chain fatty acid was fed in the form of tricaprin. Tricaprin is a substance in which decanoic acid (C10), a linear saturated fatty acid having 10 carbon atoms, is bonded to glycerol. Thus, the high-content neutral fats are medium chain fatty acids of the present invention.
From the second week after the arrival, all rats were fed high-fat feed. Then, the medium chain fatty acid administration group was forcibly administered with the high-content neutral fats in an amount of 1,145 MG/KG body-weight/day in addition to the high-fat feed. Furthermore, the control group was forcibly administered with water in an amount of 1,145 MG/KG body-weight/day in addition to the high-fat feed.
Three weeks after the arrival, an abdominal aortic aneurysm induction treatment was performed. In the abdominal aortic aneurysm induction treatment, a catheter is inserted in the rat abdominal aorta and the inserted catheter is ligated with the abdominal aorta. The treatment was performed according to the method disclosed in PTL 3.
After that, for the next four weeks, the control group had been fed the high-fat feed and forcibly administered with water in an amount of 1,145 MG/KG body-weight/day. Furthermore, the medium chain fatty acid administration group had been fed the high-fat feed and forcibly administered with the high-content neutral fats. Then, four weeks after the abdominal aortic aneurysm induction treatment, the rats were dissected.
Note that the abdominal aortic aneurysm was determined to have occurred if the blood vessel at the site where the abdominal aortic aneurysm induction treatment was performed dilated to twice or more its original thickness.
Next, test results obtained by using tricaprin (an ester of three decanoic acids and glycerol) and tricaprylin (an ester of three octanoic acids of C8 and glycerol) as the medium chain fatty acid is shown. The animal model preparation method is the same as that in Example 1. A group in which tricaprin (C10) was given is referred to as a tricaprin administration group and a group in which tricaprylin (C8) was given is referred to as a tricaprylin administration group.
Twenty-three, eleven, and eighteen model animals were prepared as a control group, the tricaprylin administration group, and the tricaprin administration group, respectively.

[2] = test system: abdominal aortic aneurysm; assay: Regression of established abdominal aortic aneurysm, administration from Day 7 (Example 3); format: in vivo, rat
Procedure: SD-male rats of 4 weeks old (70 to 90 G) were used. The rats were subjected to the above-described abdominal aortic aneurysm induction treatment. On Day 7, the abdomen of the rat was opened to confirm the occurrence of an abdominal aortic aneurysm, the vessel diameter was measured, and then the abdomen was closed. Subsequently, a control group was fed normal feed and water, while a tricaprin administration group was fed tricaprin in an amount of 1,145 MG/KG/day in addition to the normal feed.
Seven days after the abdominal closure (Day 14 after the abdominal aortic aneurysm induction treatment), the abdomen was opened again, and the blood vessel diameter was measured. Some rats of the control group were not subjected to laparotomy on Day 14 and continued to be fed normal feed and water. The amount of the neutral fats in the blood vessel, the amount of lipids in the blood, the blood glucose level, and the body weight were measured from the day when the abdominal aortic aneurysm induction treatment was performed.
FIGS. 3(A), 3(B), and 3(C) show the control group (depicted as “CONTROL”), and FIGS. 3(D), 3(E), and 3(F) show the tricaprin administration group (depicted as “C10-TG”).
Photographs under “DAY 0” are photographs taken when the abdominal aortic aneurysm induction treatment was performed (FIG. 3(A) and FIG. 3(D)). […]

[3] = Example 2, number of rats (tricaprylin 11, tricaprin 18 animals)
[4] = Example 2, number of rats (tricaprylin 11, tricaprin 18 animals), dilated to twice or more original thickness

## CCCCCCCCCC(=O)OCC(COC(=O)CCCCCCCCC)OC(=O)CCCCCCCCC [Tricaprin, tricaprin]
[1]; Example 1, 1,145 MG/KG body-weight/day, control group 38.9
  Frequency of occurrence of abdominal aortic aneurysm: 12.5%
[1]; Example 1
  Rupture rate of abdominal aortic aneurysm: 0%
  Rupture confirmed (abdominal aortic aneurysm): 0
  Rupture not confirmed (abdominal aortic aneurysm): 1
[1]; Example 1, number of rats of 8, 1,145 MG/KG body-weight/day forced administration, high-fat feed, dissected four weeks after induction
  Occurrence not confirmed (abdominal aortic aneurysm): 7
[1]; Example 1, number of rats of 8, vessel dilated to twice or more its original thickness, 1,145 MG/KG body-weight/day
  Occurrence confirmed (abdominal aortic aneurysm): 1
[1]; during the test period
  Survival rate: 100%
[1]
  Diameter of the aorta in the abdominal aortic aneurysm induction part: about 2.2 MM
[1]; Example 2
  Rupture rate of abdominal aortic aneurysm: 0%
  Rupture confirmed (abdominal aortic aneurysm): 0
  Rupture not confirmed (abdominal aortic aneurysm): 1
[1]; Example 2, control group 30.4
  Frequency of occurrence of abdominal aortic aneurysm: 5.6%
[1]; [3]
  Occurrence not confirmed (abdominal aortic aneurysm): 17
[1]; [4]
  Occurrence confirmed (abdominal aortic aneurysm): 1
[2]; Day 14, 1,145 MG/KG/day from Day 7, 2.79 MM on Day 7 before administration, control 2.81 to 3.59 MM
  Maximum aneurysm diameter: 1.89 MM
[2]; Example 3, measured from the day of induction treatment
  Weight gain rate versus control group: no difference

## CCCCCCCC(=O)OCC(COC(=O)CCCCCCC)OC(=O)CCCCCCC [Tricaprylin, tricaprylin]
[1]; until Day 26 after induction treatment, control declined on Day 17
  Survival rate: 100%
[1]
  Diameter of the aorta in the abdominal aortic aneurysm induction part: about 3.5 MM
[1]; Example 2
  Rupture rate of abdominal aortic aneurysm: 33.3%
  Rupture confirmed (abdominal aortic aneurysm): 1
  Rupture not confirmed (abdominal aortic aneurysm): 2
[1]; Example 2, control group 30.4
  Frequency of occurrence of abdominal aortic aneurysm: 27.3%
[1]; [3]
  Occurrence not confirmed (abdominal aortic aneurysm): 8
[1]; [4]
  Occurrence confirmed (abdominal aortic aneurysm): 3
